According to patent US11590139B2, “Substituted aminopurine compounds, compositions thereof, and methods of treatment therewith” (Signal Pharmaceuticals, LLC, priority 2014, dated 2023):
Read-outs that look alike come from different tables or passages of the source.

System: Lox-IMVI melanoma cell line
Experiment: Lox-IMVI anti-proliferative assay (growth inhibition, Cell Titer-Glo)
Assay type: cell-based, human
Settings: Homo sapiens
How it was run: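 Cells grown in RPMI + 10% FBS were exposed to compound at 0.5 nM to 10 μM (10-point, 3-fold dilution, duplicate, 0.2% DMSO final) for 72 h at 37 °C, 5% CO2. Viability was read by ATP luminescence at t0 and 72 h. IC50 came from a four-parameter logistic fit normalized to DMSO control.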

[1] = Lox-IMVI melanoma cell line, anti-proliferative assay, read-out: Activity (IC50 activity level)
[2] = Lox-IMVI anti-proliferative assay, IC50 activity level, read-out: Activity
[3] = IC50 activity level in the cell-based Lox-IMVI anti-proliferative assay, read-out: Activity

Row | IC50 [2] | IC50 [3] | Structure (SMILES) | other results
1 | – | – | C[C@]1(C(N)=O)CC[C@@H](n2c(Nc3c(F)cc(F)cc3F)nc3cnc(N[C@@H]4CC[C@@H](O)C4)nc32)CC1 [Example 634, (1S,4s)-4-(2-((1R,3R)-3-hydroxycyclopentylamino)-8-(2,4,6-trifluorophenylamino)-9H-purin-9-yl)-1-methylcyclohexanecarboxamide] | IC50 [1]: 500 to 1000 nM
2 | < 250 nM | – | NC(=O)[C@H]1CC[C@@H](n2c(Nc3c(F)cc(F)cc3Cl)nc3cnc(N[C@@H]4CCC(F)(F)C4)nc32)CC1 [Example 590, (1S,4s)-4-(8-(2-chloro-4,6-difluorophenylamino)-2-((R)-3,3-difluorocyclopentylamino)-9H-purin-9-yl)cyclohexanecarboxamide] | –
3 | – | < 250 nM | N#Cc1cc(Cl)c(Nc2nc3cnc(NC4CCC(F)(F)CC4)nc3n2[C@H]2CC[C@@H](C(N)=O)CC2)c(Cl)c1 [Example 397, (1s,4s)-4-(8-(2,6-dichloro-4-cyanophenylamino)-2-(4,4-difluorocyclohexylamino)-9H-purin-9-yl)cyclohexanecarboxamide] | –
4 | – | > 1000 nM | NC(=O)[C@H]1CC[C@@H](n2c(Nc3ccccc3Cl)nc3cnc(NC4CCCC4)nc32)CC1 [Example 93, (1s,4s)-4-(8-(2-chlorophenylamino)-2-(cyclopentylamino)-9H-purin-9-yl)cyclohexanecarboxamide] | –
5 | – | > 1000 nM | NC(=O)[C@H]1CC[C@@H](n2c(Nc3cccc(Cl)c3F)nc3cnc(NC4CCCC4)nc32)CC1 [Example 140, (1s,4s)-4-(8-(3-chloro-2-fluorophenylamino)-2-(cyclopentylamino)-9H-purin-9-yl)cyclohexanecarboxamide] | –
6 | > 1000 nM | – | C[C@H]1COCC[C@@H]1Nc1ncc2nc(Nc3c(F)cc(Cl)cc3F)n([C@H]3CC[C@@H](C(N)=O)CC3)c2n1 [Example 507, (1R,4s)-4-(8-(4-chloro-2,6-difluorophenylamino)-2-((3R,4S)-3-methyltetrahydro-2H-pyran-4-ylamino)-9H-purin-9-yl)cyclohexanecarboxamide] | –
7 | – | > 1000 nM | NC(=O)[C@H]1CC[C@@H](n2c(Nc3c(Cl)cc(F)cc3Cl)nc3cnc(N[C@H]4CCC[C@@H](O)C4)nc32)CC1 [Example 374, (1R,4s)-4-(8-(2,6-dichloro-4-fluorophenylamino)-2-((1S,3R)-3-hydroxycyclohexylamino)-9H-purin-9-yl)cyclohexanecarboxamide] | –
8 | > 1000 nM | – | NC(=O)[C@H]1CC[C@@H](n2c(Nc3c(F)cc(Cl)cc3Cl)nc3cnc(NCC(F)(F)CO)nc32)CC1 [Example 451, (1s,4s)-4-(8-(2,4-dichloro-6-fluorophenylamino)-2-(2,2-difluoro-3-hydroxypropylamino)-9H-purin-9-yl)cyclohexanecarboxamide] | –
9 | – | – | C[C@]1(C(N)=O)CC[C@@H](n2c(Nc3c(F)cc(Cl)cc3Cl)nc3cnc(NC4CC(F)(F)C4)nc32)CC1 [Example 651, (1s,4s)-4-(8-(2,4-dichloro-6-fluorophenylamino)-2-(3,3-difluorocyclobutylamino)-9H-purin-9-yl)-1-methylcyclohexanecarboxamide] | IC50 [1]: < 250 nM
10 | 250 to 500 nM | – | C[C@H]1COCC[C@@H]1Nc1ncc2nc(Nc3c(Cl)cc(C#N)cc3Cl)n([C@H]3CC[C@@H](C(N)=O)CC3)c2n1 [Example 496, (1R,4s)-4-(8-(2,6-dichloro-4-cyanophenylamino)-2-((3R,4S)-3-methyltetrahydro-2H-pyran-4-ylamino)-9H-purin-9-yl)cyclohexanecarboxamide] | –
11 | – | 250 to 500 nM | NC(=O)[C@H]1CC[C@@H](n2c(Nc3c(F)ccc(Cl)c3Cl)nc3cnc(NC4CCOCC4)nc32)CC1 [Example 104, (1s,4s)-4-(8-(2,3-dichloro-6-fluorophenylamino)-2-(tetrahydro-2H-pyran-4-ylamino)-9H-purin-9-yl)cyclohexanecarboxamide] | –
12 | – | > 1000 nM | NC(=O)[C@H]1CC[C@@H](n2c(Nc3cc(F)c(Cl)cc3F)nc3cnc(NC4CCC(F)(F)CC4)nc32)CC1 [Example 238, (1s,4s)-4-(8-(4-chloro-2,5-difluorophenylamino)-2-(4,4-difluorocyclohexylamino)-9H-purin-9-yl)cyclohexanecarboxamide] | –
